From patent publication US8685974B2 (Bayer CropScience AG, priority 2009, dated 2014)
Several values for one entry are separate records, joined by “and”; a condition that tells them apart may be missing. Identical values can stand only once. Like-named read-outs stand apart in the source and are kept apart here. Marks after values point to notes of the source that are not given here.

Columns and labels:
Fusarium proliferatum = assay: Production of fumonisin FB1 by Fusarium proliferatum (microtiter plate, HPLC-MS/MS and OD620); format: cell-based; conditions: for % inhibition FB1 production at 50 μM: 5 days at 20° C., HPLC-MS/MS; for % inhibition fungal growth at 50 μM: Fusarium proliferatum, OD620 at start and after 5 days
Fusarium graminearum = format: cell-based; conditions: 50 μM; for % Inhibition of DON/AcDON at 50 μM: 7 days at 28° C.
Alternaria solani = assay: Alternaria test (tomato) / protective; format: in vivo; conditions: 500 ppm active compound, protective spray, evaluated 7 days after inoculation
Procedure, shortened: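 Young tomato plants sprayed protectively with compound formulated in DMF with alkylaryl polyglycol ether emulsifier and diluted in water to the application rate. After inoculation, plants held at 96% rel. humidity and 20° C. Efficacy scored 7 days post-inoculation: 0% equals untreated control, 100% no infection.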

Leptosphaeria nodorum = Leptosphaeria nodorum test (wheat) / protective; format: in vivo; conditions: 500 ppm active compound, protective spray, evaluated 7-9 days after inoculation
Experimental: Leptosphaeria nodorum Test (Wheat)/Protective
Solvent: 49 parts by weight of N,N-dimethylformamide
Emulsifier: 1 part by weight of alkylaryl polyglycol ether
To produce a suitable preparation of active compound, 1 part by weight of active compound is mixed with the stated amounts of solvent and emulsifier, and the concentrate is diluted with water to the desired concentration.
To test for protective activity, young wheat plants are sprayed with the preparation of active compound at the stated application rate. […] The plants are then placed in a greenhouse at 90% rel. atmospheric humidity and a temperature of 22° C.
Evaluation is carried out 7-9 days after the inoculation. 0% means an efficacy which corresponds to that of the control, whereas an efficacy of 100% means that no infection is observed.

Pyrenophora teres = assay: In vivo test on Pyrenophora teres (barley net blotch); conditions: dose of 500 ppm; barley plants; grading 12 days after contamination
Procedure, shortened: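 Barley plants (Plaisant) grown at 12° C. sprayed at 1-leaf stage with compound in acetone/Tween/DMSO diluted in water; 24 h later inoculated with P. teres spores (12,000 spores/ml). Incubated 24 h at ~20° C., 100% RH, then 12 days at 80% RH; graded 12 days post-inoculation against untreated controls.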

| Structure (SMILES) | % inhibition FB1 production at 50 μM (Fusarium proliferatum) | % inhibition fungal growth at 50 μM (Fusarium proliferatum) | % Inhibition of fungal growth at 50 μM (Fusarium graminearum) | % Inhibition of DON/AcDON at 50 μM (Fusarium graminearum) | log p (pH 2.7) | efficacy (Alternaria solani) | efficacy (Leptosphaeria nodorum) | protection (Pyrenophora teres) | chromatographic logP (physchem; pH 2.7) | chromatographic logP (physchem; pH 7.8) | logP value of the minor isomer (pH 2.7) | log p (pH 2.3) |
| --- | --- | --- | --- | --- | --- | --- | --- | --- | --- | --- | --- | --- |
| CCC(C)n1ncc(-c2ccncc2)c1-c1ccc(F)s1 (centres unmarked) [Example 107] | 80% | 1% | 86% | 100% | 1.69^[b] |  |  |  |  |  |  |  |
| CCC(C)n1cc(-c2ccncc2)c(-c2ccc(F)s2)n1 (centres unmarked) [Example 106] | 98% | 39% | 98% | 99% | 1.78^[b] | 100% |  |  |  |  |  |  |
| CCC(=O)Nc1cc(-c2cn(C(C)CC)nc2-c2cc(Cl)cs2)ccn1 (centres unmarked) [Example 164, N-{4-[1-sec-Butyl-3-(4-chloro-2-thienyl)-1H-pyrazol-4-yl]pyridin-2-yl}propanamide] |  |  |  |  |  | 90% | 95% | 100% | 3.07 | 3.59 |  |  |
| CCC(C)C(=O)Nc1cc(-c2cn(C(C)C)nc2-c2ccc(Cl)s2)ccn1 (centres unmarked) [Example 249] |  |  | 11% | 99% | 3.61^[b] | 95% | 80% | 95% |  |  |  |  |
| CC(=O)n1cc(-c2ccncn2)c(-c2ccc(Cl)s2)n1 [Example 4] | 89% | 22% |  |  | 2.92^[b] |  |  |  |  |  |  |  |
| CCC(C)n1cc(-c2ccnc(NC(=O)C(C)C)c2)c(-c2ccc(Cl)s2)n1 (centres unmarked) [Example 234] |  |  | 45% | 96% | 3.63^[b] | 90% | 80% | 95% |  |  |  |  |
| CC(C)n1cc(-c2ccncc2)c(-c2ccc(F)s2)n1 [Example 108] | 100% | 25% | 99% | 100% | 1.53^[b] | 100% |  |  |  |  |  |  |
| CC(=O)Nc1cc(-c2cn(C)nc2-c2ccc(Cl)s2)ccn1 [Example 287] |  |  | 94% | 99% | 1.79^[b] | 90% | 80% | 95% |  |  |  |  |
| CC(C)Cn1cc(-c2ccncc2)c(-c2ccc(Br)s2)n1 [Example 405] |  |  | 90% | 99% | 2.1^[b] | 94% | 94% | 70% |  |  | (1.98) |  |
| Cn1cc(-c2ccnc(NC(=O)CC3CC3)c2)c(-c2ccc(Cl)s2)n1 [Example 281] |  |  | 100% | 99% | 2.54^[b] | 90% | 80% | 90% |  |  |  |  |
| COc1ccc(Cn2nc(-c3ccc(Cl)s3)c(-c3ccncc3)c2C2CC2)cc1 [Example 101] | 87% | 0% |  |  | 2.69^[b] |  |  |  |  |  |  |  |
| CC(C)C(=O)Nc1cc(-c2cn(C)nc2-c2ccc(Cl)s2)ccn1 [Example 288] |  |  | 92% | 99% | 2.39^[b] | 90% | 70% | 95% |  |  |  |  |
| CCC(C)C(=O)Nc1cc(-c2cn(CC)nc2-c2ccc(Cl)s2)ccn1 (centres unmarked) [Example 252] |  |  | 99% | 99% | 3.13^[b] | 95% | 70% | 100% |  |  |  |  |
| CC(C)n1cc(-c2ccnc(NC(=O)C3CC3)c2)c(-c2ccc(Cl)s2)n1 [Example 247] |  |  | 91% | 99% | 2.94^[b] | 95% | 80% | 100% |  |  |  |  |
| CCn1cc(-c2ccnc(NC(=O)C(C)C)c2)c(-c2ccc(Cl)s2)n1 [Example 285] |  |  | 90% | 99% | 2.77^[b] | 95% | 80% | 95% |  |  |  |  |
| CCC(C)n1cc(-c2ccnc(C#N)c2)c(-c2ccc(Cl)s2)n1 (centres unmarked) [Example 97] | 99% | 17% |  |  | 4.41^[b] | 90% |  |  |  |  |  |  |

| Structure (SMILES) | % inhibition FB1 production at 50 μM (Fusarium proliferatum) | % inhibition fungal growth at 50 μM (Fusarium proliferatum) | % Inhibition of fungal growth at 50 μM (Fusarium graminearum) | % Inhibition of DON/AcDON at 50 μM (Fusarium graminearum) | log p (pH 2.7) | efficacy (Alternaria solani) | efficacy (Leptosphaeria nodorum) | protection (Pyrenophora teres) | chromatographic logP (physchem; pH 2.7) | chromatographic logP (physchem; pH 7.8) | logP value of the minor isomer (pH 2.7) | log p (pH 2.3) |
| --- | --- | --- | --- | --- | --- | --- | --- | --- | --- | --- | --- | --- |
| CC(=O)Nc1cc(-c2cnn(/C=C/F)c2-c2ccc(Cl)s2)ccn1 [Example 292] |  |  | 45% | 100% | 2.84^[b] | 90% | 70% | 95% |  |  |  |  |
| CCn1cc(-c2ccnc(NC(=O)CC(C)C)c2)c(-c2ccc(Cl)s2)n1 [Example 286] |  |  | 68% | 99% | 3.15^[b] | 90% | 90% | 80% |  |  |  |  |
| CCC(=O)Nc1cc(-c2cn(CC)nc2-c2ccc(Cl)s2)ccn1 [Example 263] |  |  | 100% | 99% | 2.4^[b] | 95% | 80% | 90% |  |  |  |  |
| CC(C)C(=O)Nc1cc(-c2cn(C(C)C)nc2-c2ccc(Cl)s2)ccn1 [Example 257] |  |  | 81% | 99% | 3.21^[b] | 95% | 90% | 95% |  |  |  |  |
| CCC(=O)Nc1cc(-c2cn(C(C)C)nc2-c2ccc(Cl)s2)ccn1 [Example 246] |  |  | 91% | 99% | 2.78^[b] | 95% | 90% | 100% |  |  |  |  |
| CCC(C)n1cc(-c2ccncc2)c(-c2ccc(Br)s2)n1 (centres unmarked) [Example 354] |  |  | 97% | 99% | 2.15^[b] | 90% | 70% | 95% |  |  |  |  |
| CC(C)Cn1cc(-c2ccnc(NC(=O)C(C)C)n2)c(-c2ccc(Cl)s2)n1 [Example 98] | 97% | 4% |  |  |  |  |  |  |  |  |  | 3.67^[a] |
| CCC(=O)Nc1cc(-c2cn(C)nc2-c2ccc(Cl)s2)ccn1 [Example 278] |  |  | 100% | 98% | 2.05^[b] | 90% | 80% | 90% |  |  |  |  |
| CC(C)CC(=O)Nc1cc(-c2cn(C(C)C)nc2-c2ccc(Cl)s2)ccn1 [Example 258] |  |  | 54% | 94% | 3.63^[b] | 95% | 70% | 100% |  |  |  |  |
| CCC(=O)Nc1cc(-c2cn(C(C)CC)nc2-c2ccc(Cl)s2)ccn1 (centres unmarked) [Example 225] |  |  | 87% | 99% | 3.19^[b] | 95% | 70% | 95% |  |  |  |  |
| CCC(C)n1cc(-c2ccnc(NC(=O)C3CC3)c2)c(-c2ccc(Cl)s2)n1 (centres unmarked) [Example 226] |  |  | 93% | 99% | 3.35^[b] | 90% | 80% | 100% |  |  |  |  |
| CCn1cc(-c2ccnc(N)c2)c(-c2ccc(Cl)s2)n1 [Example 307] |  |  | 45% | 80% | 1.54^[b] | 80% and 94% | 78% | 80% and 95% |  |  |  |  |
| CCn1cc(-c2ccnc(NC(C)=O)c2)c(-c2ccc(Cl)s2)n1 [Example 284] |  |  | 100% | 99% | 2.1^[b] | 95% | 80% | 100% |  |  |  |  |
| CCn1cc(-c2ccnc(NC(=O)C3CC3)c2)c(-c2ccc(Cl)s2)n1 [Example 264] |  |  | 100% | 99% | 2.52^[b] | 90% | 80% | 90% |  |  |  |  |
| CCC(C)n1cc(-c2ccncc2)c(-c2cc(Cl)cs2)n1 (centres unmarked) [Example 167, 4-[1-sec-Butyl-3-(4-chloro-2-thienyl)-1H-pyrazol-4-yl]pyridine] |  |  |  |  |  | 90% | 90% | 95% | 1.86 |  | (1.76) |  |
